Experiment [1] has as its target T1, Adenylate cyclase type 1 (Homo sapiens, UniProt Q08828). Description: Ability to activate the conversion of [32P] ATP to [32P]-cyclic AMP mediated by adenylate cyclase 1. In kind it is functional.
Target sequence in this assay (Q08828 whole entry): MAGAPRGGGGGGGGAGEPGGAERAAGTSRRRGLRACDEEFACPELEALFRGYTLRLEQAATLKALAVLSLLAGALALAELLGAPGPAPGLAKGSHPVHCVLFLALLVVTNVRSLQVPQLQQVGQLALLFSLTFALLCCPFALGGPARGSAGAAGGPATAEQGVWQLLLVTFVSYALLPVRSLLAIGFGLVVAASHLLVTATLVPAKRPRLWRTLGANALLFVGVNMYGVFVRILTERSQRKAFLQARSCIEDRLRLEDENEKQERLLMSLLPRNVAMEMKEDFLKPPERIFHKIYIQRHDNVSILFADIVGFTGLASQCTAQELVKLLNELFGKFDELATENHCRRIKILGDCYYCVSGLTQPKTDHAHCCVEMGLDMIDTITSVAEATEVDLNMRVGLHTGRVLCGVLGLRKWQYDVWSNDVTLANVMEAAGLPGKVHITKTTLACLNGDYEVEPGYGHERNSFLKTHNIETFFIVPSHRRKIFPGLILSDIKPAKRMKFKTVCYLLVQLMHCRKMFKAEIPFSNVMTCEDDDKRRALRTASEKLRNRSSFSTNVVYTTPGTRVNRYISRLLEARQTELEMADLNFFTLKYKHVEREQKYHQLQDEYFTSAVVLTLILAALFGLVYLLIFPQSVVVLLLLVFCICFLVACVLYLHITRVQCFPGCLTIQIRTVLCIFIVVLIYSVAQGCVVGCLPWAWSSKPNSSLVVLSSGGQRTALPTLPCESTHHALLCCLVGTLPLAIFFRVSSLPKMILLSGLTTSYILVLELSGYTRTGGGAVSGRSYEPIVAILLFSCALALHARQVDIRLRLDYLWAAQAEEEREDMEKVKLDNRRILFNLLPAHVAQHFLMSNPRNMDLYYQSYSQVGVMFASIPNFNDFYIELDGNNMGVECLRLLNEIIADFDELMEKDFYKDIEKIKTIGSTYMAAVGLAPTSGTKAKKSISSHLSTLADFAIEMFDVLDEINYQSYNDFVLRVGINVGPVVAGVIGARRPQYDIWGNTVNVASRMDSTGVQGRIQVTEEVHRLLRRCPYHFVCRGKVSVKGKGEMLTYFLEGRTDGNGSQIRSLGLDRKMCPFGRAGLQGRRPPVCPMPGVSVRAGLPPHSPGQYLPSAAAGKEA
Experiment [2] deals with T1, Adenylate cyclase type 1. Description: Maximum stimulation activity measured with 100 uM forskolin mediated by Adenylate cyclase 1. In kind it is functional.
Target sequence in this assay (Q08828 whole entry, looked up): as the sequence (Q08828 whole entry) above
Experiment [3] addresses T1, Adenylate cyclase type 1. Briefly: Conversion of [32P] ATP to [32P]-cyclic AMP mediated by adenylate cyclase 1. Conditions: read-out: EC50. In kind it is functional.
Target sequence in this assay (Q08828 whole entry): as above
In experiment [4] the target is T1, Adenylate cyclase type 1. Briefly: (§1) Inhibition of [125 I]6-IHPP-forskolin binding to adenylate cyclase 1.
Target sequence in this assay (Q08828 whole entry): as above
In experiment [5] the target is T1, Adenylate cyclase type 1. Described as §1. The source holds these as a separate data set.
Target sequence in this assay (Q08828 whole entry): as above
The target in experiment [6] is T1, Adenylate cyclase type 1. Briefly: Maximum stimulation activity measured with 100 uM forskolin mediated by adenylate cyclase 1. In kind it is functional.
Target sequence in this assay (Q08828 whole entry, looked up): as the sequence (Q08828 whole entry) above
For experiment [7], the target named is T1, Adenylate cyclase type 1. Description: (§2) Inhibition of [125 I]6-IHPP-forskolin binding to Adenylate cyclase 1. In kind it is functional.
Target sequence in this assay (Q08828 whole entry): as above
A further experiment deals with Adenylate cyclase type 2 (Rattus norvegicus, UniProt P26769). Description: Ability to activate the conversion of [32P] ATP to [32P]-cyclic AMP. In kind it is functional.
The target of experiment [8] is T1, Adenylate cyclase type 1. The experiment is described as §2.
Target sequence in this assay (Q08828 whole entry): as above

This is an account of results in ChEMBL document CHEMBL1129369, “Forskolin carbamates: binding and activation studies with type I adenylyl cyclase” (J Med Chem, 1996).

One may read the EC50 as the midpoint of the concentration-response curve. By IC50 is commonly meant the point on the concentration scale where inhibition reaches its midpoint. A higher IC50 goes with a need for much substance.

Adenylate cyclase type 2, sequence (P26769 whole entry): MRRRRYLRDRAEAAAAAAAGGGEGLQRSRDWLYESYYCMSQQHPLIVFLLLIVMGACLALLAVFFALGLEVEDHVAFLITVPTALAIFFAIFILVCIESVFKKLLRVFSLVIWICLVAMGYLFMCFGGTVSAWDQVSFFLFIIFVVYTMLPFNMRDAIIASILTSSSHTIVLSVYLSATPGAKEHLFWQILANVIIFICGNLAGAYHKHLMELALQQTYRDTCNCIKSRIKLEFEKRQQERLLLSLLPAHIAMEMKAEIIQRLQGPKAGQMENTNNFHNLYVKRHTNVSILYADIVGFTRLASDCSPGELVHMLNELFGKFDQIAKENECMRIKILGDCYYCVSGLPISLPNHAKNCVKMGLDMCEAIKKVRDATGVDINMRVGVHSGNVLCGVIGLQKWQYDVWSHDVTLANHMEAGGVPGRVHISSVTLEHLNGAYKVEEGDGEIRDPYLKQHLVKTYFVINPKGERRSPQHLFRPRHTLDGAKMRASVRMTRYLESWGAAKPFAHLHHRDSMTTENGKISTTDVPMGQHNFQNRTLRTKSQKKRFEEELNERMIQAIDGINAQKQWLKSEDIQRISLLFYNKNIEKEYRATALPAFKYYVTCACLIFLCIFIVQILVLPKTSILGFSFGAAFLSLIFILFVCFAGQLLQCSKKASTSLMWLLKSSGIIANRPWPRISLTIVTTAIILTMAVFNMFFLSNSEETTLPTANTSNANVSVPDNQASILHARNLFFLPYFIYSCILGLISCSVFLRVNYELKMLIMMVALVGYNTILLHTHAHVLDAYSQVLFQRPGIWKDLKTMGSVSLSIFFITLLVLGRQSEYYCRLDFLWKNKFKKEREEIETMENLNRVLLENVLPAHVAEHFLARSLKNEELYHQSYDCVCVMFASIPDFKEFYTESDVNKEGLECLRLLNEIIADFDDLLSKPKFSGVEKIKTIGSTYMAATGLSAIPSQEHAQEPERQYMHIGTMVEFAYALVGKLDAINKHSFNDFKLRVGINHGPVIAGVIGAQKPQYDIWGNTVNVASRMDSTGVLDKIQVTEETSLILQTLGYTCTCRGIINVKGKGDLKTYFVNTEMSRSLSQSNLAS

`C=C[C@@]1(C)CC(=O)[C@]2(O)[C@@]3(C)[C@@H](O)CCC(C)(C)[C@@H]3[C@H](OC(=O)NCCOC)[C@H](O)[C@@]2(C)O1`: the EC50 is over 2000 nM on Adenylate cyclase type 1 [1] and 3100 nM on Adenylate cyclase type 1 [3]. At Adenylate cyclase type 1 [2], this molecule had an Activity of 84%. Besides, the IC50 at Adenylate cyclase type 1 [4] was 318 nM; on Adenylate cyclase type 1 [5] it was over 150 nM.
In the same order, the values of `C=C[C@@]1(C)CC(=O)[C@]2(O)[C@@]3(C)[C@@H](O)CCC(C)(C)[C@@H]3[C@H](O)[C@H](OC(=O)NCCO)[C@@]2(C)O1` are under 2000 nM, 1400 nM, 119%, 43 nM and under 150 nM.
In the case of `C=C[C@@]1(C)CC(=O)[C@]2(O)[C@@]3(C)[C@@H](O)CCC(C)(C)[C@@H]3[C@H](OC(=O)NCCC)[C@H](O)[C@@]2(C)O1`, the results for the EC50 at Adenylate cyclase type 1 [1] and at Adenylate cyclase type 1 [3] were over 2000 nM and 4900 nM, respectively. The molecule also came in with an Activity on Adenylate cyclase type 1 [6] of 61%. The IC50 is over 150 nM at Adenylate cyclase type 1 [7] and 555 nM at Adenylate cyclase type 1 [4].
Take `C=C[C@@]1(C)CC(=O)[C@]2(O)[C@@]3(C)[C@@H](O)CCC(C)(C)[C@@H]3[C@H](O)[C@H](OC(=O)NCCN3CCCCC3)[C@@]2(C)O1`: the results for the EC50 on Adenylate cyclase type 1 [1] and on Adenylate cyclase type 1 [3] were under 2000 nM and 1200 nM, respectively. The Activity on Adenylate cyclase type 1 [2] was 81%. For the same molecule, the IC50 on Adenylate cyclase type 1 [4] is 184 nM; on Adenylate cyclase type 1 [5], over 150 nM.
Taken in the same sequence, the figures for `C=C[C@@]1(C)CC(=O)[C@]2(O)[C@@]3(C)[C@@H](O)CCC(C)(C)[C@@H]3[C@H](O)[C@H](OC(=O)NCCN(C)C)[C@@]2(C)O1` were over 2000 nM, 2200 nM, 89%, 228 nM and over 150 nM.
Consider `C=C[C@@]1(C)CC(=O)[C@]2(O)[C@@]3(C)[C@@H](O)CCC(C)(C)[C@@H]3[C@H](O)[C@H](OC(=O)NCCN)[C@@]2(C)O1`, for which the EC50 is under 2000 nM at Adenylate cyclase type 1 [1] and 700 nM on Adenylate cyclase type 1 [3]. The molecule further displayed an Activity at Adenylate cyclase type 1 [6] of 85%. Also, the IC50 at Adenylate cyclase type 1 [4] is 128 nM; on Adenylate cyclase type 1 [5] it was under 150 nM.
`C=C[C@@]1(C)CC(=O)[C@]2(O)[C@@]3(C)[C@@H](O)CCC(C)(C)[C@@H]3[C@H](O)[C@H](OC(=O)NCC3CCCCC3)[C@@]2(C)O1`: the EC50 was over 2000 nM at Adenylate cyclase type 1 [1] and 6400 nM on Adenylate cyclase type 1 [3]. The Activity at Adenylate cyclase type 1 [6] was 44%. Also, the values for the IC50 on Adenylate cyclase type 1 [4] and at Adenylate cyclase type 1 [5] were 1600 nM and over 150 nM, respectively.
Taken in the same sequence, the figures for `C=C[C@@]1(C)CC(=O)[C@]2(O)[C@@]3(C)[C@@H](O)CCC(C)(C)[C@@H]3[C@H](OC(=O)NCCC(C)(C)C)[C@H](O)[C@@]2(C)O1` were over 2000 nM, 2100 nM, 63%, 680 nM and over 150 nM.
Taken in the same sequence, the figures for `C=C[C@@]1(C)CC(=O)[C@]2(O)[C@@]3(C)[C@@H](O)CCC(C)(C)[C@@H]3[C@H](OC(=O)NCCc3ccccn3)[C@H](OC(C)=O)[C@@]2(C)O1` were under 2000 nM, 600 nM, 97%, 21 nM and under 150 nM.
Taken in the same sequence, the figures for `C=C[C@@]1(C)CC(=O)[C@]2(O)[C@@]3(C)[C@@H](O)CCC(C)(C)[C@@H]3[C@H](OC(=O)NCCC(=O)OCC)[C@H](OC(C)=O)[C@@]2(C)O1` were over 2000 nM, 3500 nM, 157%, 44 nM and under 150 nM.
As for `C=C[C@@]1(C)CC(=O)[C@]2(O)[C@@]3(C)[C@@H](O)CCC(C)(C)[C@@H]3[C@H](O)[C@H](OC(=O)NCCC)[C@@]2(C)O1`, the EC50 on Adenylate cyclase type 1 [1] is under 2000 nM; on Adenylate cyclase type 1 [3], 1300 nM. Besides, the Activity on Adenylate cyclase type 1 [6] was found to be 101%. Also, the values for the IC50 on Adenylate cyclase type 1 [4] and at Adenylate cyclase type 1 [5] were 89 nM and under 150 nM, respectively.
In the same order, the values of `C=C[C@@]1(C)CC(=O)[C@]2(O)[C@@]3(C)[C@@H](O)CCC(C)(C)[C@@H]3[C@H](OC(=O)NCCC(=O)OCC)[C@H](O)[C@@]2(C)O1` are over 2000 nM, 6500 nM, 75%, 171 nM and over 150 nM.
For `C=C[C@@]1(C)CC(=O)[C@]2(O)[C@@]3(C)[C@@H](O)CCC(C)(C)[C@@H]3[C@H](O)[C@H](OC(=O)NCCc3ccc(N)cc3)[C@@]2(C)O1`, the EC50 on Adenylate cyclase type 1 [1] is under 2000 nM; at Adenylate cyclase type 1 [3], 1100 nM. Besides, the Activity at Adenylate cyclase type 1 [2] was determined as 68%. Moreover, the IC50 is 64 nM on Adenylate cyclase type 1 [4] and under 150 nM at Adenylate cyclase type 1 [5].
`C=C[C@@]1(C)CC(=O)[C@]2(O)[C@@]3(C)[C@@H](O)CCC(C)(C)[C@@H]3[C@H](OC(=O)NCCO)[C@H](OC(C)=O)[C@@]2(C)O1`: the concentration giving a half-maximal response (EC50) is under 2000 nM at Adenylate cyclase type 1 [1] and 500 nM on Adenylate cyclase type 1 [3]. At Adenylate cyclase type 1 [6], this molecule returned an Activity of 57%. The IC50 was 142 nM at Adenylate cyclase type 1 [4] and under 150 nM at Adenylate cyclase type 1 [5].
For `C=C[C@@]1(C)CC(=O)[C@]2(O)[C@@]3(C)[C@@H](O)CCC(C)(C)[C@@H]3[C@H](O)[C@H](OC(C)=O)[C@@]2(C)O1` [COLFORSIN], the results for the EC50 on Adenylate cyclase type 2 and at Adenylate cyclase type 1 [3] were under 2000 nM and 500 nM, respectively. On Adenylate cyclase type 1 [6], the Activity was found to be 100%. Further, the values for the IC50 on Adenylate cyclase type 1 [8] and on Adenylate cyclase type 1 [4] were under 150 nM and 41 nM, respectively.
As to `C=C[C@@]1(C)CC(=O)[C@]2(O)[C@@]3(C)[C@@H](O)CCC(C)(C)[C@@H]3[C@H](O)[C@H](OC(=O)NCC(C)C)[C@@]2(C)O1`, the values for the EC50 at Adenylate cyclase type 1 [1] and at Adenylate cyclase type 1 [3] were over 2000 nM and 2700 nM, respectively. Besides, at Adenylate cyclase type 1 [6], the Activity is 72%. Also, the figures for the half-maximal inhibitory concentration (IC50) at Adenylate cyclase type 1 [4] and on Adenylate cyclase type 1 [5] were 112 nM and under 150 nM, respectively.
